Measurements from patent US10251395B2, “Substituted furano-/thienocycloalkylamino-2-pyrimidine derivatives and use thereof for controlling undesired plant growth” (Bayer CropScience Aktiengesellschaft, priority 2015, dated 2019).

Legend:
Type in all cases: in vivo
[1] = tested on: Avena fatua; assay: Pre-emergence herbicidal effect; details: scored visually after 3 weeks
Procedure, shortened: (§1)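 After seeds are covered with sandy loam soil, the formulated compound is sprayed onto the soil surface as an aqueous suspension or emulsion containing 0.2% wetting agent. Three weeks later in the greenhouse, damage is rated by eye from 0% (like controls) to 100% (dead).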

[2] = tested on: Echinochloa crus-galli; assay: Pre-emergence herbicidal effect; details: scored visually after 3 weeks
Procedure, shortened: as §1

[3] = tested on: Veronica persica; assay: Pre-emergence herbicidal effect; details: scored visually after 3 weeks
Procedure, shortened: as §1

[4] = tested on: Alopecurus myosuroides; assay: Pre-emergence herbicidal effect; details: scored visually after 3 weeks
Procedure, shortened: as §1

[5] = tested on: Amaranthus retroflexus; assay: Pre-emergence herbicidal effect; details: scored visually after 3 weeks
Procedure, shortened: as §1

[6] = tested on: Abutilon theophrasti; assay: Pre-emergence herbicidal effect; details: Dosage 320 g/ha, scored visually after 3 weeks
Procedure, shortened: as §1

[7] = tested on: Stellaria media; assay: Pre-emergence herbicidal effect; details: scored visually after 3 weeks
Procedure, shortened: as §1

[8] = tested on: Viola tricolor; assay: Pre-emergence herbicidal effect; details: scored visually after 3 weeks
Procedure, shortened: as §1

[9] = tested on: Matricaria inodora; assay: Pre-emergence herbicidal effect; details: scored visually after 3 weeks
Procedure, shortened: as §1

[10] = tested on: Setaria viridis; assay: Pre-emergence herbicidal effect; details: scored visually after 3 weeks
Procedure, shortened: as §1

[11] = tested on: Polygonum convolvulus; assay: Pre-emergence herbicidal effect; details: scored visually after 3 weeks
Procedure, shortened: as §1

[12] = tested on: Lolium multiflorum; assay: Pre-emergence herbicidal effect; details: Dosage 320 g/ha, scored visually after 3 weeks
Procedure, shortened: as §1

[13] = tested on: Echinochloa crus-galli; assay: Post-emergence herbicidal effect; details: 320 g/ha, assessed visually after about 3 weeks vs untreated controls
Procedure, shortened: (§2)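 Action, expressed in percent from 0 (like controls) to 100 (plants died), is read by eye about 3 weeks after foliar application. Applications use formulated product in water at 600–800 L/ha on one-leaf-stage plants sown in sandy loam.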

[14] = tested on: Veronica persica; assay: Post-emergence herbicidal effect; details: assessed visually after about 3 weeks vs untreated controls
Procedure, shortened: as §2

[15] = tested on: Amaranthus retroflexus; assay: Post-emergence herbicidal effect; details: assessed visually after about 3 weeks vs untreated controls
Procedure, shortened: as §2

[16] = tested on: Abutilon theophrasti; assay: Post-emergence herbicidal effect; details: assessed visually after about 3 weeks vs untreated controls
Procedure, shortened: as §2

[17] = tested on: Stellaria media; assay: Post-emergence herbicidal effect; details: assessed visually after about 3 weeks vs untreated controls
Procedure, shortened: as §2

[18] = tested on: Viola tricolor; assay: Post-emergence herbicidal effect; details: assessed visually after about 3 weeks vs untreated controls
Procedure, shortened: as §2

[19] = tested on: Matricaria inodora; assay: Post-emergence herbicidal effect; details: assessed visually after about 3 weeks vs untreated controls
Procedure, shortened: as §2

[20] = tested on: Lolium multiflorum; assay: Post-emergence herbicidal effect; details: assessed visually after about 3 weeks vs untreated controls
Procedure, shortened: as §2

[21] = tested on: Ipomoea purpurea; assay: Post-emergence herbicidal effect; details: assessed visually after about 3 weeks vs untreated controls
Procedure, shortened: as §2

[22] = tested on: Polygonum convolvulus; assay: Post-emergence herbicidal effect; details: 320 g/ha, assessed visually after about 3 weeks vs untreated controls
Procedure, shortened: as §2

[23] = tested on: Setaria viridis; assay: Post-emergence herbicidal effect; details: assessed visually after about 3 weeks vs untreated controls
Procedure, shortened: as §2

Cc1cc2c(s1)CCCC2Nc1nc(N)c([S+](C)[O-])c(C(C)F)n1 (racemic) [compound 309]
AVEFA pre-emergence efficacy (herbicidal activity) ([1]; Dosage 320 g/ha): 90%
ECHCG pre-emergence efficacy (herbicidal activity) ([2]; Dosage 80 g/ha): 60%
ECHCG pre-emergence efficacy (herbicidal activity) ([2]; Dosage 320 g/ha): 90%
VERPE pre-emergence efficacy (herbicidal activity) ([3]; Dosage 80 g/ha): 100%
VERPE pre-emergence efficacy (herbicidal activity) ([3]; Dosage 320 g/ha): 100%
ALOMY pre-emergence efficacy (herbicidal activity) ([4]; Dosage 320 g/ha): 90%
AMARE pre-emergence efficacy (herbicidal activity) ([5]; Dosage 80 g/ha): 90%
AMARE pre-emergence efficacy (herbicidal activity) ([5]; Dosage 320 g/ha): 100%
ABUTH pre-emergence efficacy (herbicidal activity) [6]: 80%
STEME pre-emergence efficacy (herbicidal activity) ([7]; Dosage 80 g/ha): 100%
STEME pre-emergence efficacy (herbicidal activity) ([7]; Dosage 320 g/ha): 100%
VIOTR pre-emergence efficacy (herbicidal activity) ([8]; Dosage 80 g/ha): 100%
VIOTR pre-emergence efficacy (herbicidal activity) ([8]; Dosage 320 g/ha): 100%
MATIN pre-emergence efficacy (herbicidal activity) ([9]; Dosage 80 g/ha): 90%
MATIN pre-emergence efficacy (herbicidal activity) ([9]; Dosage 320 g/ha): 100%
SETVI pre-emergence efficacy (herbicidal activity) ([10]; Dosage 80 g/ha): 90%
SETVI pre-emergence efficacy (herbicidal activity) ([10]; Dosage 320 g/ha): 100%
POLCO pre-emergence efficacy (herbicidal activity) ([11]; Dosage 80 g/ha): 100%
POLCO pre-emergence efficacy (herbicidal activity) ([11]; Dosage 320 g/ha): 100%

Nc1nc(NC2CCc3sccc32)ncc1C(F)(F)F (racemic) [compound 215]
AVEFA pre-emergence efficacy (herbicidal activity) ([1]; Dosage 80 g/ha): 70%
AVEFA pre-emergence efficacy (herbicidal activity) ([1]; Dosage 320 g/ha): 70%
ECHCG pre-emergence efficacy (herbicidal activity) ([2]; Dosage 80 g/ha): 80%
ECHCG pre-emergence efficacy (herbicidal activity) ([2]; Dosage 320 g/ha): 100%
VERPE pre-emergence efficacy (herbicidal activity) ([3]; Dosage 80 g/ha): 100%
VERPE pre-emergence efficacy (herbicidal activity) ([3]; Dosage 320 g/ha): 100%
ALOMY pre-emergence efficacy (herbicidal activity) ([4]; Dosage 320 g/ha): 90%
AMARE pre-emergence efficacy (herbicidal activity) ([5]; Dosage 80 g/ha): 100%
AMARE pre-emergence efficacy (herbicidal activity) ([5]; Dosage 320 g/ha): 100%
STEME pre-emergence efficacy (herbicidal activity) ([7]; Dosage 80 g/ha): 100%
STEME pre-emergence efficacy (herbicidal activity) ([7]; Dosage 320 g/ha): 100%
VIOTR pre-emergence efficacy (herbicidal activity) ([8]; Dosage 80 g/ha): 80%
VIOTR pre-emergence efficacy (herbicidal activity) ([8]; Dosage 320 g/ha): 90%
MATIN pre-emergence efficacy (herbicidal activity) ([9]; Dosage 80 g/ha): 100%
MATIN pre-emergence efficacy (herbicidal activity) ([9]; Dosage 320 g/ha): 100%
SETVI pre-emergence efficacy (herbicidal activity) ([10]; Dosage 80 g/ha): 90%
SETVI pre-emergence efficacy (herbicidal activity) ([10]; Dosage 320 g/ha): 100%
LOLMU pre-emergence efficacy (herbicidal activity) [12]: 100%
POLCO pre-emergence efficacy (herbicidal activity) ([11]; Dosage 320 g/ha): 100%

Cc1cc2c(s1)CCCC2Nc1ncc(SC(F)(F)F)c(C)n1 (racemic) [compound 80]
post-emergence efficacy ECHCG [13]: 70%
post-emergence efficacy VERPE ([14]; 80 g/ha): 90%
post-emergence efficacy VERPE ([14]; 320 g/ha): 100%
post-emergence efficacy AMARE ([15]; 80 g/ha): 100%
post-emergence efficacy AMARE ([15]; 320 g/ha): 100%
post-emergence efficacy ABUTH ([16]; 80 g/ha): 80%
post-emergence efficacy ABUTH ([16]; 320 g/ha): 90%
post-emergence efficacy STEME ([17]; 80 g/ha): 100%
post-emergence efficacy STEME ([17]; 320 g/ha): 100%
post-emergence efficacy VIOTR ([18]; 80 g/ha): 100%
post-emergence efficacy VIOTR ([18]; 320 g/ha): 100%
post-emergence efficacy MATIN ([19]; 80 g/ha): 70%
post-emergence efficacy MATIN ([19]; 320 g/ha): 90%
post-emergence efficacy LOLMU ([20]; 80 g/ha): 70%
post-emergence efficacy LOLMU ([20]; 320 g/ha): 90%
post-emergence efficacy PHBPU ([21]; 80 g/ha): 90%
post-emergence efficacy PHBPU ([21]; 320 g/ha): 100%
post-emergence efficacy POLCO [22]: 60%
AVEFA pre-emergence efficacy (herbicidal activity) ([1]; Dosage 320 g/ha): 60%
VERPE pre-emergence efficacy (herbicidal activity) ([3]; Dosage 80 g/ha): 100%
VERPE pre-emergence efficacy (herbicidal activity) ([3]; Dosage 320 g/ha): 100%
ALOMY pre-emergence efficacy (herbicidal activity) ([4]; Dosage 320 g/ha): 70%
AMARE pre-emergence efficacy (herbicidal activity) ([5]; Dosage 80 g/ha): 100%
AMARE pre-emergence efficacy (herbicidal activity) ([5]; Dosage 320 g/ha): 100%
STEME pre-emergence efficacy (herbicidal activity) ([7]; Dosage 80 g/ha): 100%
STEME pre-emergence efficacy (herbicidal activity) ([7]; Dosage 320 g/ha): 100%
VIOTR pre-emergence efficacy (herbicidal activity) ([8]; Dosage 80 g/ha): 90%
VIOTR pre-emergence efficacy (herbicidal activity) ([8]; Dosage 320 g/ha): 100%
MATIN pre-emergence efficacy (herbicidal activity) ([9]; Dosage 80 g/ha): 70%
MATIN pre-emergence efficacy (herbicidal activity) ([9]; Dosage 320 g/ha): 90%
SETVI pre-emergence efficacy (herbicidal activity) ([10]; Dosage 80 g/ha): 100%
SETVI pre-emergence efficacy (herbicidal activity) ([10]; Dosage 320 g/ha): 100%
POLCO pre-emergence efficacy (herbicidal activity) ([11]; Dosage 80 g/ha): 100%
POLCO pre-emergence efficacy (herbicidal activity) ([11]; Dosage 320 g/ha): 100%

Cc1cc2c(s1)CCCC2Nc1nc(N)c(Br)c(C(F)F)n1 (racemic) [compound 314]
post-emergence efficacy ECHCG [13]: 60%
post-emergence efficacy ABUTH ([16]; 320 g/ha): 70%
post-emergence efficacy STEME ([17]; 320 g/ha): 50%
post-emergence efficacy VIOTR ([18]; 320 g/ha): 60%
post-emergence efficacy SETVI ([23]; 320 g/ha): 60%
post-emergence efficacy PHBPU ([21]; 320 g/ha): 90%
AVEFA pre-emergence efficacy (herbicidal activity) ([1]; Dosage 320 g/ha): 60%
ECHCG pre-emergence efficacy (herbicidal activity) ([2]; Dosage 80 g/ha): 70%
ECHCG pre-emergence efficacy (herbicidal activity) ([2]; Dosage 320 g/ha): 90%
VERPE pre-emergence efficacy (herbicidal activity) ([3]; Dosage 320 g/ha): 100%
ALOMY pre-emergence efficacy (herbicidal activity) ([4]; Dosage 80 g/ha): 60%
ALOMY pre-emergence efficacy (herbicidal activity) ([4]; Dosage 320 g/ha): 90%
AMARE pre-emergence efficacy (herbicidal activity) ([5]; Dosage 80 g/ha): 90%
ABUTH pre-emergence efficacy (herbicidal activity) [6]: 60%
STEME pre-emergence efficacy (herbicidal activity) ([7]; Dosage 80 g/ha): 100%
STEME pre-emergence efficacy (herbicidal activity) ([7]; Dosage 320 g/ha): 100%
VIOTR pre-emergence efficacy (herbicidal activity) ([8]; Dosage 80 g/ha): 100%
VIOTR pre-emergence efficacy (herbicidal activity) ([8]; Dosage 320 g/ha): 100%
MATIN pre-emergence efficacy (herbicidal activity) ([9]; Dosage 80 g/ha): 90%
SETVI pre-emergence efficacy (herbicidal activity) ([10]; Dosage 80 g/ha): 100%
SETVI pre-emergence efficacy (herbicidal activity) ([10]; Dosage 320 g/ha): 100%
POLCO pre-emergence efficacy (herbicidal activity) ([11]; Dosage 80 g/ha): 100%
POLCO pre-emergence efficacy (herbicidal activity) ([11]; Dosage 320 g/ha): 100%

Nc1nc(NC2CCc3ccsc32)ncc1C(F)(F)F (racemic) [compound 29]
post-emergence efficacy ECHCG [13]: 100%
post-emergence efficacy STEME ([17]; 80 g/ha): 90%
post-emergence efficacy STEME ([17]; 320 g/ha): 100%
post-emergence efficacy VIOTR ([18]; 80 g/ha): 80%
post-emergence efficacy VIOTR ([18]; 320 g/ha): 90%
post-emergence efficacy SETVI ([23]; 80 g/ha): 90%
post-emergence efficacy SETVI ([23]; 320 g/ha): 100%
post-emergence efficacy LOLMU ([20]; 320 g/ha): 80%
post-emergence efficacy POLCO [22]: 90%
AVEFA pre-emergence efficacy (herbicidal activity) ([1]; Dosage 320 g/ha): 100%
ECHCG pre-emergence efficacy (herbicidal activity) ([2]; Dosage 320 g/ha): 100%
VERPE pre-emergence efficacy (herbicidal activity) ([3]; Dosage 320 g/ha): 90%
ALOMY pre-emergence efficacy (herbicidal activity) ([4]; Dosage 320 g/ha): 100%
AMARE pre-emergence efficacy (herbicidal activity) ([5]; Dosage 80 g/ha): 60%
AMARE pre-emergence efficacy (herbicidal activity) ([5]; Dosage 320 g/ha): 100%
STEME pre-emergence efficacy (herbicidal activity) ([7]; Dosage 80 g/ha): 100%
STEME pre-emergence efficacy (herbicidal activity) ([7]; Dosage 320 g/ha): 100%
VIOTR pre-emergence efficacy (herbicidal activity) ([8]; Dosage 80 g/ha): 100%
VIOTR pre-emergence efficacy (herbicidal activity) ([8]; Dosage 320 g/ha): 100%
MATIN pre-emergence efficacy (herbicidal activity) ([9]; Dosage 80 g/ha): 100%
MATIN pre-emergence efficacy (herbicidal activity) ([9]; Dosage 320 g/ha): 100%
SETVI pre-emergence efficacy (herbicidal activity) ([10]; Dosage 80 g/ha): 90%
SETVI pre-emergence efficacy (herbicidal activity) ([10]; Dosage 320 g/ha): 100%
LOLMU pre-emergence efficacy (herbicidal activity) [12]: 100%
